In US12053441B2, “Formulations for improving the delivery of hydrophobic agents” (THE ROYAL INSTITUTION FOR THE ADVANCEMENT OF LEARNING / …, priority 2018, dated 2024):

Tests used:
[1] = Description: Solubilization studies. In order to link the surfactant properties of McC1 and its stimulating impact on UQ10 uptake, the solubilization characteristics of McC1 on UQ10 have been determined. First, solubilization test was performed by overnight shaking of a mixture of UQ10 and McC1 in water.
Additional solubilization tests were performed using sonication. Excess amount of UQ10 was mixed with McC1 by sonication for 2 min in water.
Like caspofungin/McC1, surfactin is a cyclic lipopeptide. It is produced from various strains of Bacillus subtilis. Structurally it consists of a peptide chain formed by seven amino acids linked to a β-hydroxyl fatty acid via a lactone bond. It is known for its exceptional surfactant power. […] Then, solubilization test was performed by overnight shaking of a mixture of UQ10 and surfactin in water. The mixture were subjected to brief centrifugation to separate undissolved UQ10 before absorbance of the resultant clear supernatant at 275 nm was measured spectrophotometrically.
Several other surfactants were tested for their ability to solubilize UQ. Briefly, excess amount of UQ10 was mixed with water solution of the tested surfactants using sonication. The resultant suspensions were then filtered through a 0.45 μm syringe filter to remove undissolved UQ10.

[2] = test system: mouse embryonic fibroblasts (MEFs); test: Effect of PTX/McC1 micelles on cell growth and survival (resazurin reduction assay); assay type: cell-based; conditions: 2 to 6 days exposure (FIG. 26B)
Description: To evaluate the antiproliferative activity of PTX/McC1 micelles, we seeded exponentially growing mouse embryonic fibroblasts (MEFs) into 48-well plates, exposed them to PTX/McC1 micelles for 2 to 6 days, and determined the treatment effect on cell growth and survival by comparing the numbers of variable cells before and after the treatment.
Cells were allowed to attach overnight and then the PTX/McC1 solution was added into the culture media to obtain the desired concentrations. After 2 days' treatment, the standard resazurin reduction assay was used to evaluate cell growth and survival.

Pdss2/Mclk1 DKO cells [3] = test: Viability in glucose-free galactose-containing medium (resazurin reduction assay); assay type: cell-based, mouse
Description: Tissue culture and viability assays. […] Cell viability was determined by resazurin (Sigma Cat No R7017) reduction assay or crystal violet staining following standard procedures.
The resazurin cell viability assay. Briefly, resazurin was added directly to plates at 1/10 the volume of glucose culture medium. Viable cells with active metabolism can reduce resazurin into resorufin which causes a colour change from blue to pink. After a 2 hr incubation, plates were read on a plate reader (Tecan) to record absorbance at 570 nm and 600 nm. The cell viability was scored as a percentage relative to the signal from untreated glucose-grown wells. Consequently, each screened compound may be described by its effect (no, partial or full rescue) on survival of the KO cells in galactose medium.
The screen also uses cells lacking UQ biosynthesis (e.g., DKO cells) and its protocol is essentially the same as the galactose-only screen except that in step 2, a minimal amount of UQ10 is added into the galactose screening media at a concentration at which the added UQ10 is insufficient by itself to support survival.

[4] = test system: mitochondria of wild-type MEFs; test: UQ levels in mitochondrial extracts; assay type: cell-based, mouse; conditions: in combination with UQ10, vs UQ10 alone
Description: (§1) FIGS. 7A to 7D present exemplary data showing that McC1 is capable of increasing the uptake of exogenous UQ into cells and mitochondria. (A) Bar chart showing change of UQ10 levels (as measured in ng/μg of protein) in Pdss2/Mclk1 DKO MEFs after treatment with UQ10, McC1 alone, or UQ10 and McC1 in combination. **p<0.01, ***p<0.001 (one-way ANOVA). (B) Bar charts presenting exemplary data showing changes of UQ levels in wildtype MEFs after treatment with UQ10, McC1 alone, or both in combination. Results are shown as cellular UQ10 levels (as provided in ng/μg of protein, left panel) or UQ9 levels (as provided in ng/μg of protein, right panel) in untreated cells, after treatment with 12.5 μM of McC1, after treatment with 2.5 μM of UQ10, or after co-treatment UQ10 and McC1. Results are mean±SEM (n=3). ****p<0.0001 (one-way ANOVA). (C) Bar chart presenting exemplary data showing changes of UQ10 and UQ9 levels in mitochondrial extracts from wildtype MEFs after treatment with UQ10 alone, or in combination with McC1. Results are shown as UQ9 and UQ10 levels in ng/μg of protein. Results are mean±SEM (n=3). ****p<0.0001 (student's t-test). (D) Bar chart presenting exemplary data showing changes of UQ10 level in mitochondrial extracts from Pdss2/Mclk1 DKO MEFs after treatment with UQ10 alone, or in combination with McC1. Results are shown as UQ10 levels (as provided in ng/μg of protein) in untreated DKO cells, after treatment with 2.5 μM of UQ10, or after co-treatment 2.5 μM of UQ10 and 12.5 μM of McC1. ND: Not Detectable. Results are mean±SEM (n=3). ****p<0.0001 (one-way ANOVA).
(§2) Quantification of quinones. Quinone content was detected and quantified by HPLC as previously described. […] After centrifugation for 5 min at 8,000×g, the hexane layer was collected and evaporated in a vacuum centrifuge. The quinone residue was then dissolved in ethanol and stored at −20° C. until HPLC analysis. The HPLC analysis was performed on a reverse phase C18 column (25.0×0.46 cm, 5 μm, Highchrom) using UV detection at 275 nm (Beckman System Gold). The mobile phase was methanol/ethanol (70:30 v/v) and isocratic elution was used at a flow rate of 1.8 ml/min.

[5] = test system: mitochondria of Pdss2/Mclk1 DKO MEFs; test: UQ levels in mitochondrial extracts; assay type: cell-based, mouse; conditions: in combination with UQ10, vs UQ10 alone
Description: as §1, §2

wildtype MEFs = test: Cellular UQ10 levels (quinone quantification by HPLC); assay type: cell-based, mouse
Description: as §2

Pdss2/Mclk1 DKO MEFs = test: as above; assay type: cell-based, mouse
Description: as §2

[6] = Drop collapse assay (surfactant activity); assay type: physicochemical
Description: Drop collapse assay is a simple detection method of surface active agents. It relies on the capacity of surfactants to destabilize the liquid droplets on an oily surface. The drop-collapsing ability of McC1 along with other known potent surfactants was characterized. For each, 40 ul of compound solution in water was pipetted onto a hydrophobic Parafilm surface and the diameter of the drops was measured 1 min later using a ruler.

Pdss2/Mclk1 DKO cells [7] = test: Oxygen consumption rate (OCR) by Seahorse XF analyzer; assay type: cell-based, mouse; conditions: co-treatment with UQ10
Description: Measurement of oxygen consumption by Seaborse XF analyzer. Cells were seeded in XF v7 24-well plates (Seahorse Bioscience) at ˜40,000 cells/well for 24 hr. Prior to the measurements, cell medium was replaced with Seahorse XF base medium supplemented with 5.5 mM glucose (Sigma Cat No G8769), 2 mM Glutamax (Thermo Fisher Cat No 35050061) and 1 mM sodium pyruvate and allowed to equilibrate for 1 hour at 37° C. Oxygen consumption was measured first under baseline condition, followed by subsequent addition of 1 μg/ml oligomycin (Sigma Cat No 04876), 0.8 μM FCCP (Sigma Cat No C2920) and a combination of 1 μM rotenone (Sigma Cat No R8875) and 5 μM antimycin A (Sigma Cat No A8674) to assess the basal and maximal mitochondrial respiration rates. Four baseline measurements were recorded before the consecutive addition of the above-mentioned compounds, and three response measurements were taken after the addition of each compound. Results were finally normalized to protein content determined using the Bradford reagent (Bio-Rad). For experiments that involved culturing cells in the presence of lipoprotein-deficient serum (LPDS), cells were grown in culture medium supplemented with LPDS (Sigma S5394) for 1 week before OCR was measured using a Seahorse XF-24 extracellular flux analyzer as described above.

[8] = Solubilization of paclitaxel (PTX) in water; conditions: FIG. 25
Description: (A) Bar graph showing a concentration of soluble PTX in 4 mM McC1 solution. After mixing PTX and McC1 solution, the undissolved residues were removed by filtration through a 0.22 μm pore-size membrane. For determination of the PTX concentration, absorbance at 230 nm was measured and compared to a standard curve generated for known concentrations of PTX in pure methanol.

[9] = in combination with UQ10, vs UQ10 alone

| solubility of PTX in water-only control [8] | Structure (SMILES) | increase in aqueous solubility of UQ10 [1] | water solubility of UQ10 in the presence of the compound [1] | effect on cell growth and survival [2] | survival of DKO cells in galactose medium (Pdss2/Mclk1 DKO cells [3]; compound by itself, no UQ10 added) | survival of DKO cells in galactose medium (Pdss2/Mclk1 DKO cells [3]; in the presence of a minimal amount of UQ10) | uptake of exogenous UQ10 into mitochondria [4] | uptake of exogenous UQ10 into mitochondria [5] | intracellular concentration of UQ (wildtype MEFs; compound used alone) | cellular uptake of exogenous UQ10 (wildtype MEFs; [9]) | intracellular concentration of UQ (Pdss2/Mclk1 DKO MEFs; compound used alone) | cellular uptake of exogenous UQ10 (Pdss2/Mclk1 DKO MEFs; [9]) | surfactant (drop collapse) activity [6] | mitochondrial respiration (OCR) compared with UQ10 treatment alone (Pdss2/Mclk1 DKO cells [7]) |
| --- | --- | --- | --- | --- | --- | --- | --- | --- | --- | --- | --- | --- | --- | --- |
| – | CC[C@H](C)C[C@H](C)CCCCCCCCC(=O)N[C@H]1C[C@@H](O)[C@@H](NCCN)NC(=O)[C@@H]2[C@@H](O)CCN2C(=O)[C@H]([C@H](O)CCN)NC(=O)[C@H]([C@H](O)[C@@H](O)c2ccc(O)cc2)NC(=O)[C@@H]2C[C@@H](O)CN2C(=O)[C@H]([C@@H](C)O)NC1=O [McC1, Caspofungin] | more than 1,200,000 fold | greatly increased | no observable toxicity | no effect | able to rescue the mutant cells from death | significantly increased uptake of exogenous UQ10 into mitochondria | significantly increased uptake of exogenous UQ10 into mitochondria | no effect | increased uptake of exogenous UQ10 into cells | no effect | increased uptake of exogenous UQ10 into cells | moderate surfactant activity | greater increase of mitochondrial respiration |
| not soluble in water | CC(=O)O[C@H]1C(=O)[C@@]2(C)[C@H]([C@H](OC(=O)c3ccccc3)[C@]3(O)C[C@H](OC(=O)[C@H](O)[C@@H](NC(=O)c4ccccc4)c4ccccc4)C(C)=C1C3(C)C)[C@]1(OC(C)=O)CO[C@@H]1C[C@@H]2O [PTX, Paclitaxel] | – | – | – | – | – | – | – | – | – | – | – | – | – |
